Laboratory results reported in patent publication US8796415B2, “Inhibitors of guanine exchange factors and their use as anticancer drugs” (Centre National de la Recherche Scientifique, priority 2009, dated 2014).
Ends that are not written are not given here.

Experiments:
Trio DH2-PH2 [1] = biological target: T1, Trio DH2-PH2 (Homo sapiens, UniProt O75962); settings: Schmidt et al., 2002; cited from earlier work
T1 construct: made in house

Lbc = biological target: T2, Lbc (Homo sapiens, UniProt Q12802); settings: shown previously (Schmidt et al., 2002 and unpublished results); cited from earlier work
T2 construct: GST-Dbl (DH-PH domain), GST-Lbc (DH-PH), GST-p63RhoGEF (DH domain) and GST-RhoG were purified as described previously; GST (N); made in house
T2 sequence (Q12802 1994-2333): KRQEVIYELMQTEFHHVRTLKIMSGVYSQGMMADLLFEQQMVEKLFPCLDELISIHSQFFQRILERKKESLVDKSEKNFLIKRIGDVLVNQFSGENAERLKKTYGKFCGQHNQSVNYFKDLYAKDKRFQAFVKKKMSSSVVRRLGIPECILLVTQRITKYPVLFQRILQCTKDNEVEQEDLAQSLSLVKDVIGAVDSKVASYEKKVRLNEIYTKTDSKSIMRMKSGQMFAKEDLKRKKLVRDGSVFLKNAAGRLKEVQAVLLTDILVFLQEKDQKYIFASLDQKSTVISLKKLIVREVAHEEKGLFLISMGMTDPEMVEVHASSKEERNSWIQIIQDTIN

Dbl = settings: shown previously (Schmidt et al., 2002 and unpublished results); cited from earlier work
Dbl, sequence (P10911 495-809 limits assumed): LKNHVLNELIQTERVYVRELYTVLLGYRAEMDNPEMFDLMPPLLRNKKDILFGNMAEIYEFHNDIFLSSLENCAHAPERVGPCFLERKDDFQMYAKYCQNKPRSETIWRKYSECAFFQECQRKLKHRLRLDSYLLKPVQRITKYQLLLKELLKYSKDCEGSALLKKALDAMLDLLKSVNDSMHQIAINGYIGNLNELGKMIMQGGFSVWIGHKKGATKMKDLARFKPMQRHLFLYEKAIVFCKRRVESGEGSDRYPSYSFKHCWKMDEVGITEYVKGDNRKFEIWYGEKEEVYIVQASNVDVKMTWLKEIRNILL

p63RhoGEF = biological target: T3, p63RhoGEF (Homo sapiens, UniProt Q86VW2); settings: shown previously (Schmidt et al., 2002 and unpublished results); cited from earlier work
T3 construct: GST-p63RhoGEF (DH domain) and GST-RhoG were purified as described previously; GST (N); made in house
T3 sequence (Q86VW2 160-336 limits assumed): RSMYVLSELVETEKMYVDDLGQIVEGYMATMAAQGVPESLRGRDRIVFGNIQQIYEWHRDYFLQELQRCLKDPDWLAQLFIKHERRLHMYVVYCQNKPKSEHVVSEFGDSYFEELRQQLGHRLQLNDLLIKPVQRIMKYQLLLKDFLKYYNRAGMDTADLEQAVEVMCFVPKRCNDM

PC12 cells = settings: Schmidt et al., 2002; cited from earlier work
Trio DH2-PH2 [2] = biological target: T1, Trio DH2-PH2; assay: [3H]-GDP dissociation assay on Trio DH2-PH2; assay type: biochemical; settings: 0.15 μM GST-Trio DH2-PH2, 3 μM GST-TRIP inhibitors
Procedure: Each residue of the active core of TRIPα (amino acids 9-36; Schmidt et al., 2002) was mutated to alanine, except cysteines which were changed into serines. All TRIPα mutants were then tested for their inhibitory activity on Trio DH2-PH2 in [3H]-GDP dissociation assays. This analysis mapped two essential regions of TRIPα, amino acids 9-20 and 28-33, where single mutations were sufficient to impair inhibition (see table 3).
The inventors next reasoned that peptides that would bind stronger to the GEF domain may also be better at inhibiting its activity. […] These clones were then produced as GST fusions and analyzed for their inhibition of Trio DH2-PH2, using the [3H]-GDP dissociation assay. […]
An aptamer library derived from TRIPα was created by PCR-based random mutagenesis of TRIPα inserted into the yeast two-hybrid vector pPC86. […] Selected peptides were then produced as GST-fusions and analyzed for their inhibition of Trio DH2-PH2 using the [3H]-GDP dissociation assay.
Radioactive [3H]-GDP dissociation assays were performed as described (Schmidt et al., 2002). […] Inhibition efficiency is expressed as the ratio between [3H]-GDP-bound RhoA at 15 and 0 min. Apparent inhibition constants (Kiapp) of TRIP-like peptides were determined from kobs values obtained at increasing peptide concentrations using the above fluorescence nucleotide exchange assay. […]

[3] = test system: Tgat-expressing NIH3T3 cells; assay: Focus formation assay of Tgat-expressing NIH3T3 cells; assay type: cell-based; settings: GST-tagged peptide stably co-expressed; after 3 weeks of culture
Procedure: FIG. 9A represents the focus formation assay of NIH3T3 cells, stably expressing GFP or GFP-Tgat, together with GST or GST-TRIPE32G.
FIG. 9B represents the quantification of three independent focus formation assays. The number of foci formed by Tgat/GST expressing cells was set to 100%.
NIH3T3 cells were maintained as described previously (Sirvent et al., 2007). Transient transfection experiments were performed using the Jet PEI reagent, according to the manufacturer's protocol (QBiogene Inc.). NIH3T3 cell lines stably expressing GFP-Tgat, GFP-TgatL190E, or GFP-Trio, with or without the GST-TRIP peptides, were generated as follows: the indicated retroviral constructs were transfected into BOSC packaging cells, using the Lipofectamine reagent (Invitrogen Inc.). Forty-eight hours after transfection, virus containing supernatants were collected and used to infect NIH3T3 cells. Infected cells were selected with 6 μg/mL puromycin and/or 1 mg/mL G418 and stable transfectants were pooled after selection. Tgat or TRIP mRNA levels in the different cell lines were monitored by RTPCR, and protein expression levels by Western blot analysis using a polyclonal anti-GFP antibody (Toney Pines Laboratories). […] After staining with Crystal Violet (1%), plates were photographed and foci were scored using the Metamorph software. […]

[4] = test system: Tgat-expressing NIH3T3 cells; assay: Cell proliferation or apoptosis (data not shown); assay type: cell-based

Row | Inhibition efficiency on Trio DH2-PH2 compared to TRIPα (Trio DH2-PH2 [2]) | Substance | inhibition of Trio DH2-PH2 activation of RhoA (Trio DH2-PH2 [1]) | activity on Lbc (Lbc) | activity on Dbl (Dbl) | activity on p63RhoGEF (p63RhoGEF) | neurite retraction phenotype induced by Trio DH2-PH2 (PC12 cells) | foci in Tgat expressing cells [3] | non-specific effect on cell proliferation or apoptosis [4]
1 |  | AREGADGAICGYNLATLVMLGPSERVFCPLCEPCSSDIYELM [TRIPα] | inhibits its activation of RhoA both in vitro and in intact cells | not active | not active | not active | reverting the neurite retraction phenotype |  | 
2 | highest inhibition on Trio DH2-PH2 | GST-TRIPE32G (AREGADGAICGYNLATLVMLGPSERVFCPLCGPCSSDIYELM; cysteine pairing not given here; also: GST fusion) |  |  |  |  |  | severely reduced | not due to a non-specific effect of TRIPE32G on cell proliferation or apoptosis
3 | highest inhibition on Trio DH2-PH2 | GST-TRIPT16M/L17S |  |  |  |  |  |  | 
